Values of other authors, collected in PMC10464202, “Discovery of novel JAK1 inhibitors through combining machine learning, structure-based pharmacophore modeling and bio-evaluation” (Journal of Translational Medicine, 2023).

Target: JAK1 (Homo sapiens, UniProt P23458)
Conditions: JAK1 inhibitors obtained by literature search; read-out: IC50 of training set (Hiphop)

JAK1, sequence (P23458 whole entry): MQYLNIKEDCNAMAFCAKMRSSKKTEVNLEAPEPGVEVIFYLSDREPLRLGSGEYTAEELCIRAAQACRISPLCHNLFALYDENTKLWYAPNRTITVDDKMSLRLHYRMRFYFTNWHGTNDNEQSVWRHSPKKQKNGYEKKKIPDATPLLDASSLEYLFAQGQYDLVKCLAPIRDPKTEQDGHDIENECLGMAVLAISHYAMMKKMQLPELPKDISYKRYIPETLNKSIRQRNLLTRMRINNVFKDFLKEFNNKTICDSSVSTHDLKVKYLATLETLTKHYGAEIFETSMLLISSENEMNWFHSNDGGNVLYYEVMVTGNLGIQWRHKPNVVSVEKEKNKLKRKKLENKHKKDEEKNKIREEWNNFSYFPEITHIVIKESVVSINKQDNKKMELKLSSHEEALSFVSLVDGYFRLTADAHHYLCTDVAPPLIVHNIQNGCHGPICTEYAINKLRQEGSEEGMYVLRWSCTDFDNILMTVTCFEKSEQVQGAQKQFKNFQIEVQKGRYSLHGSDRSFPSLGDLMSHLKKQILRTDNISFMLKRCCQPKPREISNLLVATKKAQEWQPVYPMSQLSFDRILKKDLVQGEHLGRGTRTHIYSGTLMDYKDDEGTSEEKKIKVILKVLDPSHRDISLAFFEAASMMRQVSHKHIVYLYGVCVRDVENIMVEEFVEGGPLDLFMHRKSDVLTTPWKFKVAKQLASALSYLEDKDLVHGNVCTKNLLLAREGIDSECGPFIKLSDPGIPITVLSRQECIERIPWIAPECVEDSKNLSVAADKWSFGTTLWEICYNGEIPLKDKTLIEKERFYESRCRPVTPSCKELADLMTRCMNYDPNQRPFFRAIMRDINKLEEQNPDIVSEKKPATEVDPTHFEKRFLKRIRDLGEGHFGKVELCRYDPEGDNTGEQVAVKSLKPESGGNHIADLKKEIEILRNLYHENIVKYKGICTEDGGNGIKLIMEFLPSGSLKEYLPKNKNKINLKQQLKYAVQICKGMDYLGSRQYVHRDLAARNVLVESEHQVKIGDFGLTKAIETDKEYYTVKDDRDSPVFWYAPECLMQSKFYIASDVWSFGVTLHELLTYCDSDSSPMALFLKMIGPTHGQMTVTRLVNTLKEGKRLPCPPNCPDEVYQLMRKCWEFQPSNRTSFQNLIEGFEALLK

IC50: 4 nM
SMILES: Cc1ccc(C(=O)Nc2cccc3c(-c4nc(Nc5cnn(C)c5)ncc4C)c[nH]c23)c(C)n1 [Compound 5]
